From the NIST ThermoML archive (doi:10.1021/je900878j) come the findings set out here.

Each structure is given as a SMILES string. Numbers after ± are expanded uncertainties.

The conditions of the first data set: 238.15 K; 101.33 kPa; Liquid; Symmetrical Wheatstone bridge.
As for `CCn1cc[n+](C)c1.N#CN=C=[N-]` [1-ethyl-3-methylimidazolium dicyanamide], the electrical conductivity stood at 0.1546 ± 0.0012 S/m.
For the compound `CCn1cc[n+](C)c1.F[B-](F)(F)F` [1-ethyl-3-methylimidazolium tetrafluoroborate], the electrical conductivity was 0.04188 ± 0.00034 S/m.

Still in this data set, the particulars now being: 248.15 K; 101.33 kPa; Liquid; Symmetrical Wheatstone bridge.
On to `CCn1cc[n+](C)c1.O=S(=O)([N-]S(=O)(=O)C(F)(F)F)C(F)(F)F`, for which the electrical conductivity was 0.0705 ± 0.00056 S/m.
For `CCn1cc[n+](C)c1.N#CN=C=[N-]` [1-ethyl-3-methylimidazolium dicyanamide], the electrical conductivity amounted to 0.3404 ± 0.0027 S/m.
The same measure, in the same setting: the result for `CCn1cc[n+](C)c1.F[B-](F)(F)F` [1-ethyl-3-methylimidazolium tetrafluoroborate] reads 0.1088 ± 0.00087 S/m.

Still in this data set, the particulars now being: 258.15 K; 101.33 kPa; Liquid; Capillary tube (Ostwald / Ubbelohde) method.
On to `CCn1cc[n+](C)c1.N#CN=C=[N-]` [1-ethyl-3-methylimidazolium dicyanamide], for which the viscosity (usually the resistance of a fluid to flow) is 75.38 ± 2.1 mPa·s.

The data set is the same for the next values; noted with them: 258.15 K; 101.33 kPa; Liquid; Symmetrical Wheatstone bridge.
In the case of `CCn1cc[n+](C)c1.O=S(=O)([N-]S(=O)(=O)C(F)(F)F)C(F)(F)F`, the electrical conductivity is 0.1475 ± 0.0012 S/m.
Turning to `CCCCn1cc[n+](C)c1.F[B-](F)(F)F` [1-butyl-3-methylimidazolium tetrafluoroborate], the electrical conductivity was 0.02318 ± 0.00019 S/m.
As to `CCn1cc[n+](C)c1.N#CN=C=[N-]` [1-ethyl-3-methylimidazolium dicyanamide], the electrical conductivity worked out at 0.6305 ± 0.005 S/m.
The same measure, in the same setting: to `CCn1cc[n+](C)c1.F[B-](F)(F)F` [1-ethyl-3-methylimidazolium tetrafluoroborate] belongs 0.2333 ± 0.0019 S/m.

The same data set, now with this note: 263.15 K; 101.33 kPa; Liquid; Capillary tube (Ostwald / Ubbelohde) method.
As for `CCn1cc[n+](C)c1.O=S(=O)([N-]S(=O)(=O)C(F)(F)F)C(F)(F)F`, the viscosity is 175.1 ± 5.8 mPa·s.
Consider `CCn1cc[n+](C)c1.N#CN=C=[N-]` [1-ethyl-3-methylimidazolium dicyanamide], for which the viscosity was determined as 56.81 ± 1.5 mPa·s.

Staying with this data set, now noted: 268.15 K; 101.33 kPa; Liquid; Capillary tube (Ostwald / Ubbelohde) method.
`CCn1cc[n+](C)c1.O=S(=O)([N-]S(=O)(=O)C(F)(F)F)C(F)(F)F`: the viscosity was found to be 128.8 ± 4 mPa·s.
On the same count and under the same terms, to `CCn1cc[n+](C)c1.N#CN=C=[N-]` [1-ethyl-3-methylimidazolium dicyanamide] belongs 44.24 ± 1.2 mPa·s.

The same data set, now with this note: 268.15 K; 101.33 kPa; Liquid; Symmetrical Wheatstone bridge.
As to `CCn1cc[n+](C)c1.O=S(=O)([N-]S(=O)(=O)C(F)(F)F)C(F)(F)F`, the electrical conductivity worked out at 0.2671 ± 0.0021 S/m.
Take `CCCCn1cc[n+](C)c1.F[B-](F)(F)F` [1-butyl-3-methylimidazolium tetrafluoroborate]: the electrical conductivity came to 0.05477 ± 0.00044 S/m.
For the compound `CCn1cc[n+](C)c1.N#CN=C=[N-]` [1-ethyl-3-methylimidazolium dicyanamide], the electrical conductivity came to 1.035 ± 0.0083 S/m.
Still for that read-out and setting: to `CCn1cc[n+](C)c1.F[B-](F)(F)F` [1-ethyl-3-methylimidazolium tetrafluoroborate] belongs 0.4316 ± 0.0034 S/m.

Still in this data set, the particulars now being: 269.15 K; 101.33 kPa; Liquid; Capillary tube (Ostwald / Ubbelohde) method.
Take `CCn1cc[n+](C)c1.F[B-](F)(F)F` [1-ethyl-3-methylimidazolium tetrafluoroborate]: the viscosity was 145 ± 4.6 mPa·s.

The data set is the same for the next values; noted with them: 273.15 K; 101.33 kPa; Liquid; Capillary tube (Ostwald / Ubbelohde) method.
As to `CCn1cc[n+](C)c1.N#CN=C=[N-]` [1-ethyl-3-methylimidazolium dicyanamide], the viscosity is on record as 35.22 ± 0.96 mPa·s.
Same read-out and setting: the result for `CCn1cc[n+](C)c1.F[B-](F)(F)F` [1-ethyl-3-methylimidazolium tetrafluoroborate] reads 114.1 ± 3.4 mPa·s.

Staying with this data set, now noted: 278.15 K; 101.33 kPa; Liquid; Capillary tube (Ostwald / Ubbelohde) method.
Regarding `CCn1cc[n+](C)c1.O=S(=O)([N-]S(=O)(=O)C(F)(F)F)C(F)(F)F`, the viscosity is reported as 75.13 ± 2.1 mPa·s.
Same read-out and setting: to `CCn1cc[n+](C)c1.N#CN=C=[N-]` [1-ethyl-3-methylimidazolium dicyanamide] belongs 28.59 ± 0.78 mPa·s; to `CCn1cc[n+](C)c1.F[B-](F)(F)F` [1-ethyl-3-methylimidazolium tetrafluoroborate], 86.88 ± 2.5 mPa·s.

Staying with this data set, now noted: 278.15 K; 101.33 kPa; Liquid; Symmetrical Wheatstone bridge.
`CCn1cc[n+](C)c1.O=S(=O)([N-]S(=O)(=O)C(F)(F)F)C(F)(F)F`: the electrical conductivity stood at 0.4347 ± 0.0035 S/m.
On the same count and under the same terms, to `CCCCn1cc[n+](C)c1.F[B-](F)(F)F` [1-butyl-3-methylimidazolium tetrafluoroborate] belongs 0.1137 ± 0.00091 S/m; to `CCn1cc[n+](C)c1.N#CN=C=[N-]` [1-ethyl-3-methylimidazolium dicyanamide], 1.556 ± 0.012 S/m.
On the same count and under the same terms, the result for `CCn1cc[n+](C)c1.F[B-](F)(F)F` [1-ethyl-3-methylimidazolium tetrafluoroborate] reads 0.7168 ± 0.0057 S/m.

Staying with this data set, now noted: 288.15 K; 101.33 kPa; Liquid; Capillary tube (Ostwald / Ubbelohde) method.
As to `CCn1cc[n+](C)c1.O=S(=O)([N-]S(=O)(=O)C(F)(F)F)C(F)(F)F`, the viscosity was 47.78 ± 1.3 mPa·s.
The same measure, in the same setting: the result for `CCn1cc[n+](C)c1.N#CN=C=[N-]` [1-ethyl-3-methylimidazolium dicyanamide] reads 19.81 ± 0.54 mPa·s.
Consider `CCn1cc[n+](C)c1.F[B-](F)(F)F` [1-ethyl-3-methylimidazolium tetrafluoroborate], for which the viscosity is 54.1 ± 1.5 mPa·s.

The data set is the same for the next values; noted with them: 288.15 K; 101.33 kPa; Liquid; Symmetrical Wheatstone bridge.
In the case of `CCn1cc[n+](C)c1.O=S(=O)([N-]S(=O)(=O)C(F)(F)F)C(F)(F)F`, the electrical conductivity came to 0.6526 ± 0.0052 S/m.
On the same count and under the same terms, the result for `CCCCn1cc[n+](C)c1.F[B-](F)(F)F` [1-butyl-3-methylimidazolium tetrafluoroborate] reads 0.2116 ± 0.0017 S/m.
Same read-out and setting: to `CCn1cc[n+](C)c1.N#CN=C=[N-]` [1-ethyl-3-methylimidazolium dicyanamide] belongs 2.189 ± 0.018 S/m.
The same measure, in the same setting: to `CCn1cc[n+](C)c1.F[B-](F)(F)F` [1-ethyl-3-methylimidazolium tetrafluoroborate] belongs 1.096 ± 0.0088 S/m.

Staying with this data set, now noted: 293.15 K; 101.33 kPa; Liquid; Capillary tube (Ostwald / Ubbelohde) method.
Consider `CCn1cc[n+](C)c1.O=S(=O)([N-]S(=O)(=O)C(F)(F)F)C(F)(F)F`, for which the viscosity is on record as 39.07 ± 1.1 mPa·s.
Take `CCCCn1cc[n+](C)c1.F[B-](F)(F)F` [1-butyl-3-methylimidazolium tetrafluoroborate]: the viscosity amounted to 141.1 ± 4.4 mPa·s.
On the same count and under the same terms, the result for `CCn1cc[n+](C)c1.N#CN=C=[N-]` [1-ethyl-3-methylimidazolium dicyanamide] reads 16.85 ± 0.46 mPa·s.
`CCn1cc[n+](C)c1.F[B-](F)(F)F` [1-ethyl-3-methylimidazolium tetrafluoroborate]: the viscosity turned out to be 44.19 ± 1.2 mPa·s.

Still in this data set, the particulars now being: 298.15 K; 101.33 kPa; Liquid; Capillary tube (Ostwald / Ubbelohde) method.
As for `CCn1cc[n+](C)c1.O=S(=O)([N-]S(=O)(=O)C(F)(F)F)C(F)(F)F`, the viscosity was 32.46 ± 0.88 mPa·s.
Still for that read-out and setting: the result for `CCCCn1cc[n+](C)c1.F[B-](F)(F)F` [1-butyl-3-methylimidazolium tetrafluoroborate] reads 107.6 ± 3.2 mPa·s; that for `CCn1cc[n+](C)c1.N#CN=C=[N-]` [1-ethyl-3-methylimidazolium dicyanamide], 14.5 ± 0.39 mPa·s.
`CCn1cc[n+](C)c1.F[B-](F)(F)F` [1-ethyl-3-methylimidazolium tetrafluoroborate]: the viscosity is recorded as 36.17 ± 0.98 mPa·s.

Still in this data set, the particulars now being: 298.15 K; 101.33 kPa; Liquid; Symmetrical Wheatstone bridge.
`CCn1cc[n+](C)c1.O=S(=O)([N-]S(=O)(=O)C(F)(F)F)C(F)(F)F`: the electrical conductivity was found to be 0.921 ± 0.0074 S/m.
Still for that read-out and setting: the result for `CCCCn1cc[n+](C)c1.F[B-](F)(F)F` [1-butyl-3-methylimidazolium tetrafluoroborate] reads 0.3587 ± 0.0029 S/m; that for `CCn1cc[n+](C)c1.N#CN=C=[N-]` [1-ethyl-3-methylimidazolium dicyanamide], 2.928 ± 0.023 S/m.
Consider `CCn1cc[n+](C)c1.F[B-](F)(F)F` [1-ethyl-3-methylimidazolium tetrafluoroborate], for which the electrical conductivity was determined as 1.573 ± 0.013 S/m.

Still in this data set, the particulars now being: 298.15 K; 101.33 kPa; Liquid; Vibrating tube method.
In the case of `CCn1cc[n+](C)c1.O=S(=O)([N-]S(=O)(=O)C(F)(F)F)C(F)(F)F`, the mass density (commonly mass per unit of volume) was determined as 1519.3 ± 4.5 kg/m3.
The same measure, in the same setting: to `CCCCn1cc[n+](C)c1.F[B-](F)(F)F` [1-butyl-3-methylimidazolium tetrafluoroborate] belongs 1202.4 ± 2.8 kg/m3; to `CCn1cc[n+](C)c1.N#CN=C=[N-]` [1-ethyl-3-methylimidazolium dicyanamide], 1100.8 ± 2.3 kg/m3; to `CCn1cc[n+](C)c1.F[B-](F)(F)F` [1-ethyl-3-methylimidazolium tetrafluoroborate], 1288.8 ± 3.2 kg/m3.

The same data set, now with this note: 303.15 K; 101.33 kPa; Liquid; Capillary tube (Ostwald / Ubbelohde) method.
As for `CCn1cc[n+](C)c1.O=S(=O)([N-]S(=O)(=O)C(F)(F)F)C(F)(F)F`, the viscosity was 27.3 ± 0.74 mPa·s.
Still for that read-out and setting: the result for `CCCCn1cc[n+](C)c1.F[B-](F)(F)F` [1-butyl-3-methylimidazolium tetrafluoroborate] reads 83.3 ± 2.3 mPa·s.
On the same count and under the same terms, to `CCn1cc[n+](C)c1.N#CN=C=[N-]` [1-ethyl-3-methylimidazolium dicyanamide] belongs 12.62 ± 0.34 mPa·s; to `CCn1cc[n+](C)c1.F[B-](F)(F)F` [1-ethyl-3-methylimidazolium tetrafluoroborate], 30.13 ± 0.82 mPa·s.

Staying with this data set, now noted: 303.15 K; 101.33 kPa; Liquid; Symmetrical Wheatstone bridge.
On to `CCn1cc[n+](C)c1.O=S(=O)([N-]S(=O)(=O)C(F)(F)F)C(F)(F)F`, for which the electrical conductivity came out at 1.074 ± 0.0086 S/m.
The same measure, in the same setting: the result for `CCCCn1cc[n+](C)c1.F[B-](F)(F)F` [1-butyl-3-methylimidazolium tetrafluoroborate] reads 0.4543 ± 0.0036 S/m.
